The values that follow come from US20040132037A1, “Materials and methods for the induction of premature chromosone condensation” (priority 2004, published 2004).

Read-outs that look alike come from different tables or passages of the source.

Series [1] has as its system mitogen-stimulated HPBL. The experiment in a line: PCC induction (PCC index) by OA in mitogen-stimulated HPBL. Format: cell-based, human. The method, then:
(§1) PCC spreads may be prepared according to standard cytogenetic procedures directly after the indicated treatment. Briefly, cells may be treated with a hypotonic potassium chloride (0.075 M) solution for 5 minutes and fixed in acetic: methanol (1:3) fixative. Fixed cells may be dropped onto acid cleaned glass slides.
(§2) To directly visualize the spread chromosomes, the slides may be stained. Suitable stains are known to those of skill in the art, for example, a 4% aqueous solution of Giemsa stain may be used for observation under a light microscope. Coded slides can be analyzed under 1000×magnification. Cells with condensed chromatin material displaying at least partial separation of chromosomes are scored as PCC spreads.
(§3) The PCC index may be determined as follows. [formula]
HPBLs prepared as described above may be incubated in cell culture medium supplemented with an energy source. In order to determine the optimal OA concentration and duration of incubation for PCC, phytohemagglutinin (PHA, 10 μg/ml; Murex Diagnostics) was subsequently added to the medium to stimulate proliferation.
(§4) The HPBL were treated with OA at concentrations ranging from 0.25 to 1 μM in a cell culture medium containing 100 μM ATP and incubated at 37° C. for varying durations of up to 24 hours. Slides were prepared and PCC index was determined as explained above.

Series [2] relates to unstimulated HPBL. The experiment in a line: PCC induction (PCC index) in unstimulated HPBL. The class given is cell-based, human. The note with it: cell culture medium containing OA alone, no mitogen. The method, then:
as §1, §2, §3, §4
In the following working example of the present invention, PCC induction in unstimulated HPBL was accomplished by the addition of p34^cdc2/cyclin B kinase to the complete media supplemented with ATP (100 μM) containing OA (0.75 μM) and incubation for three hours at 37° C. […]

Series [3] relates to human myeloid leukemic cell lines. The conditions noted are these: cited from earlier work.

For `C=C1[C@@H](O)[C@@H]2O[C@]3(CC[C@H](/C=C/[C@@H](C)[C@@H]4CC(C)=C[C@@]5(O[C@H](C[C@@](C)(O)C(=O)O)CC[C@H]5O)O4)O3)CC[C@H]2O[C@@H]1[C@@H](O)C[C@H](C)[C@H]1O[C@@]2(CCCCO2)CC[C@H]1C` [OA, okadaic acid], in series [1] (OA 0.25 μM, within 1 hour, p<0.01, Student's t-test), the “PCC levels determined by PCC index compared with controls” value was “significant”. The cytostatic effect entry in series [1] (OA 0.75 μM) is listed as “not cytostatic”. The “PCC index, maximum” value in series [1] (OA 1 μM, 8 hours, PHA 10 μg/ml, 100 μM ATP, 37° C.) was 61%. Further, the “quality of PCC spreads” value in series [1] (prolonged treatment with higher concentrations of OA, possibly due to toxicity) is given as “poor spread quality”. Besides, in series [2], the PCC induction result is recorded as “did not result in PCC induction”. The “phase of cell-cycle arrest” value is “G1-S-phase” in series [3] (higher PCC inducible concentrations (above 0.5 μM)) and “G2-M phase” in series [3] (lower concentrations).
